Assay results as given in patent US8951752B2, “N-demethyase genes and uses thereof” (priority 2011, dated 2015).

Target: T1, NdmB-His6 (Pseudomonas putida, UniProt H9N290)
T1 construct: made in house; host or cells: E. coli BL21(DE3)
T1 sequence (H9N290 1-355): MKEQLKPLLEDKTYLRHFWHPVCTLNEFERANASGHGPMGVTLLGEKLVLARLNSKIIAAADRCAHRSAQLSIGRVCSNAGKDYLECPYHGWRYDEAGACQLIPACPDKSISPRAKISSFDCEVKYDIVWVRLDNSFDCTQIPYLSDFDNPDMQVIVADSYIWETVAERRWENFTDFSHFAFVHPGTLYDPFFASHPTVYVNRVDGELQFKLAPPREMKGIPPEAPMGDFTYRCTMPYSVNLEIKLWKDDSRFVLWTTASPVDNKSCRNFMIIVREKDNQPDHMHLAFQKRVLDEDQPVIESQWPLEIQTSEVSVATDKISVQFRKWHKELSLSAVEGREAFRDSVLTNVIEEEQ
Experiment: Methylxanthine N-demethylase assay and kinetics, NdmB-His6 with His6-NdmD
Assay type: biochemical, Pseudomonas putida CBB5
Conditions: NdmB-His6
Protocol: Methylxanthine N-demethylase activity assay contained, in 1-ml total volume, 0.5 mM methylxanthine, 1 mM NADH, 50 μM Fe(NH4)2(SO4)2, and an appropriate amount of NdmA-His6 or NdmB-His6 (7.4 μg-2.5 mg protein depending on substrate specificity) in 50 mM KPi buffer (pH 7.5). Approximately 4 U of partially purified reductase, prepared as described previously (Summers et al., 2011) or 59 U of purified His6-NdmD was added to reaction mixture. Catalase from bovine liver (4,000 U) was also added to reactions containing His6-NdmD. The reaction mixture was incubated at 30° C. with 300 rpm shaking on an incubating microplate shaker (VWR, Radnor, Pa.). Periodically, a small aliquot was sampled from the reaction mixture and mixed with equal volume of acetonitrile for quantifying concentrations of methylxanthines and N-demethylated products by HPLC. One unit of N-demethylase activity was defined as the consumption of one […] methylxanthine per minute.
Apparent kinetic parameters of NdmA-His6 and NdmB-His6 were determined by measuring the initial rate of disappearance (vo) of methylxanthines in 50 mM KPi buffer (pH 7.5) at 30° C. The initial substrate concentrations (ESI) used in these experiments were from 25 to 500 μM. Substrates were incubated with His6-NdmD plus either NdmA-His6 or NdmB-His6 under standard conditions for 15 minutes. At 1, 5, 10, and 15 minutes, samples were removed from the reaction mixtures to quantitate substrate concentrations by HPLC. Plots of substrate concentrations against time were used to determine the initial rates of disappearance of substrates which were linear over 15 minutes. The apparent kinetic parameters were determined from Michaelis-Menten plots of vo against [S] fitted with the equation

For `Cn1cnc2c1c(=O)[nH]c(=O)n2C` [Theobromine, 3,7-dimethylxanthine], the Product was 7-methylxanthine.
